Reference: patent US9487510B2, “Substituted heterocyclic acetamides as kappa opioid receptor (KOR) agonists” (Dr. Reddy's Laboratories Ltd., priority 2012, dated 2016)
Where a name gives a salt, the structure may show the parent alone.

target: human KOR receptor (Homo sapiens, UniProt P41145); assay: IP-One HTRF assay, potency of KOR agonists, dose-response in transiently transfected COS-7 cells; assay type: cell-based
Sequence (P41145 whole entry): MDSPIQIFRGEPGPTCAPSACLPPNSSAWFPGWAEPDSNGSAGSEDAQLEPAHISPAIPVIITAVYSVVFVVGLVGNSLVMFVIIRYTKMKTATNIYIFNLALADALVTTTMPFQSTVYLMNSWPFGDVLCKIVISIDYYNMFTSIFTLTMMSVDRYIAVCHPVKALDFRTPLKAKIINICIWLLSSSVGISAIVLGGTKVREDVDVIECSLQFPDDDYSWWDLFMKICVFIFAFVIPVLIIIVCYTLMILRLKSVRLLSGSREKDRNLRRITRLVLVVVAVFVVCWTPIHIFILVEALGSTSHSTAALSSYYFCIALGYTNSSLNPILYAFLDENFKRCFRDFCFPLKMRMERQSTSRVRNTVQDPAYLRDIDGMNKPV

`O=C1CS(=O)(=O)c2ccc(CC(=O)N(CC3CC3)[C@H](CN3CCC(O)C3)c3cccc(OC(F)(F)F)c3)cc2N1` (stereo in doubt) [Example 141, N-(cyclopropylmethyl)-2-(1,1-dioxido-3-oxo-3,4-dihydro-2H-benzo[b][1,4]thiazin-6-yl)-N-((S)-2-((S)-3-hydroxypyrrolidin-1-yl)-1-(3-(trifluoromethoxy)phenyl)ethyl)acetamide] and `CCCN(C(=O)Cc1ccc2c(c1)NC(=O)CS2(=O)=O)[C@H](CN1CC[C@H](O)C1)c1cccc(OC(F)(F)F)c1` [Example 137, 2-(1,1-dioxido-3-oxo-3,4-dihydro-2H-benzo[b][1,4]thiazin-6-yl)-N-((S)-2-((S)-3-hydroxypyrrolidin-1-yl)-1-(3-(trifluoromethoxy)phenyl)ethyl)-N-propylacetamide] cannot be ordered by EC50: no more than 50 nM for the first, no more than 50 nM for the second.

`CN(C(=O)Cc1ccc2oc(=O)n(Cc3ccc(C#N)cc3)c2c1)[C@H](CN1CC[C@H](O)C1)c1ccccc1` [Example 75, 2-(3-(4-cyanobenzyl)-2-oxo-2,3-dihydrobenzo[d]oxazol-5-yl)-N-((S)-2-((S)-3-hydroxypyrrolidin-1-yl)-1-phenylethyl)-N-methylacetamide] and `CN(C(=O)Cc1ccc2oc(=O)n(Cc3cccc(C#N)c3)c2c1)[C@H](CN1CC[C@H](O)C1)c1ccccc1` [Example 66, 2-(3-(3-cyanobenzyl)-2-oxo-2,3-dihydrobenzo[d]oxazol-5-yl)-N-((S)-2-((S)-3-hydroxypyrrolidin-1-yl)-1-phenylethyl)-N-methylacetamide] cannot be ordered by EC50: no more than 50 nM for the first, no more than 50 nM for the second.

`CN(C(=O)Cc1ccc2ncc(=O)[nH]c2c1)[C@H](CN1CC[C@H](O)C1)c1cccc(C(=O)O)c1` [Example 31, 3-((S)-2-((S)-3-hydroxypyrrolidin-1-yl)-1-(N-methyl-2-(3-oxo-3,4-dihydroquinoxalin-6-yl)acetamido)ethyl)benzoic acid] and `CN(C)C(=O)c1cccc([C@@H](CN2CC[C@H](O)C2)N(C)C(=O)Cc2ccc3ncc(=O)[nH]c3c2)c1` [Example 211, 3-((S)-2-((S)-3-hydroxypyrrolidin-1-yl)-1-(N-methyl-2-(3-oxo-3,4-dihydroquinoxalin-6-yl)acetamido)ethyl)-N,N-dimethylbenzamide] cannot be ordered by EC50: no more than 50 nM for the first, no more than 50 nM for the second.

`CN(C)C(=O)c1cccc([C@@H](CN2CC[C@H](O)C2)N(C)C(=O)Cc2ccc3c(c2)NS(=O)(=O)C3)c1` [Example 210, 3-((S)-1-(2-(2,2-dioxido-1,3-dihydrobenzo[c]isothiazol-6-yl)-N-methylacetamido)-2-((S)-3-hydroxypyrrolidin-1-yl)ethyl)-N,N-dimethylbenzamide] and `CN(C(=O)Cc1ccc2c(c1)NC(=O)CS2)[C@H](CN1CC[C@H](O)C1)c1cccc(C(N)=O)c1` [Example 32, 3-((S)-2-((S)-3-hydroxypyrrolidin-1-yl)-1-(N-methyl-2-(3-oxo-3,4-dihydro-2H-benzo[b][1,4]thiazin-6-yl)acetamido)ethyl)benzamide] cannot be ordered by EC50: no more than 50 nM for the first, no more than 50 nM for the second.

`CN(C(=O)Cc1ccc2c(c1)NC(=O)CS2(=O)=O)[C@H](CN1CC[C@H](O)C1)c1ccc(F)c(OC(F)(F)F)c1` [Example 146, 2-(1,1-dioxido-3-oxo-3,4-dihydro-2H-benzo[b][1,4]thiazin-6-yl)-N-((S)-1-(4-fluoro-3-(trifluoromethoxy)phenyl)-2-((S)-3-hydroxypyrrolidin-1-yl)ethyl)-N-methylacetamide] and `CN(C(=O)Cc1ccc2c(c1)NC(=O)CS2)[C@H](CN1CC[C@H](O)C1)c1cccc(C(F)(F)F)c1` [Example 132, N-((S)-2-((S)-3-hydroxypyrrolidin-1-yl)-1-(3-(trifluoromethyl)phenyl)ethyl)-N-methyl-2-(3-oxo-3,4-dihydro-2H-benzo[b][1,4]thiazin-6-yl)acetamide] cannot be ordered by EC50: no more than 50 nM for the first, no more than 50 nM for the second.

`O=C1CS(=O)(=O)c2ccc(CC(=O)N[C@H](CN3CCCC3)c3ccccc3)cc2N1` [Example 121, (S)-2-(1,1-dioxido-3-oxo-3,4-dihydro-2H-benzo[b][1,4]thiazin-6-yl)-N-(1-phenyl-2-(pyrrolidin-1-yl)ethyl)acetamide] and `O=C1CS(=O)(=O)c2ccc(CC(=O)N[C@H](CN3CC[C@H](O)C3)c3ccccc3)cc2N1` [Example 122, 2-(1,1-dioxido-3-oxo-3,4-dihydro-2H-benzo[b][1,4]thiazin-6-yl)-N-((S)-2-((S)-3-hydroxypyrrolidin-1-yl)-1-phenylethyl)acetamide] cannot be ordered by EC50: no more than 50 nM for the first, no more than 50 nM for the second.

`CCN(CC)C(=O)c1cccc([C@@H](CN2CC[C@H](O)C2)N(C)C(=O)Cc2ccc3sc(=O)[nH]c3c2)c1` [Example 188, N,N-diethyl-3-((S)-2-((S)-3-hydroxypyrrolidin-1-yl)-1-(N-methyl-2-(2-oxo-2,3-dihydrobenzo[d]thiazol-5-yl)acetamido)ethyl)benzamide] and `CCN(CC)C(=O)COc1cccc([C@@H](CN2CC[C@H](O)C2)N(C)C(=O)Cc2ccc3sc(=O)[nH]c3c2)c1` [Example 42, N-((S)-1-(3-(2-(diethylamino)-2-oxoethoxy)phenyl)-2-((S)-3-hydroxypyrrolidin-1-yl)ethyl)-N-methyl-2-(2-oxo-2,3-dihydrobenzo[d]thiazol-5-yl)acetamide] cannot be ordered by EC50: no more than 50 nM for the first, no more than 50 nM for the second.

`CN(C(=O)Cc1ccc2oc(=O)[nH]c2c1)[C@H](CN1CC[C@H](O)C1)c1cccc(C(N)=O)c1` [Example 160, 3-((S)-2-((S)-3-hydroxypyrrolidin-1-yl)-1-(N-methyl-2-(2-oxo-2,3-dihydrobenzo[d]oxazol-5-yl)acetamido)ethyl)benzamide] and `CN(C(=O)Cc1ccc2oc(=O)[nH]c2c1)C(CN1CC[C@H](O)C1)c1cccc(OCc2nn[nH]n2)c1` (stereo in doubt) [Example 105, (R)-N-(1-(3-((2H-tetrazol-5-yl)methoxy)phenyl)-2-(3-hydroxypyrrolidin-1-yl)ethyl)-N-methyl-2-(2-oxo-2,3-dihydrobenzo[d]oxazol-5-yl)acetamide] cannot be ordered by EC50: no more than 50 nM for the first, no more than 50 nM for the second.

`CN(C(=O)Cc1ccc2c(c1)NC(=O)CO2)[C@H](CN1CC[C@H](O)C1)c1cccc(C#N)c1` [Example 153, N-((S)-1-(3-cyanophenyl)-2-((S)-3-hydroxypyrrolidin-1-yl)ethyl)-N-methyl-2-(3-oxo-3,4-dihydro-2H-benzo[b][1,4]oxazin-6-yl)acetamide] and `CN(C(=O)Cc1ccc2c(c1)NC(=O)C2)[C@H](CN1CC[C@H](O)C1)c1cccc(-c2ncon2)c1` [Example 185, N-((S)-1-(3-(1,2,4-oxadiazol-3-yl)phenyl)-2-((S)-3-hydroxypyrrolidin-1-yl)ethyl)-N-methyl-2-(2-oxoindolin-6-yl)acetamide 2,2,2-trifluoroacetate] cannot be ordered by EC50: no more than 50 nM for the first, no more than 50 nM for the second.

`CN(C(=O)Cc1ccc2c(c1)NC(=O)CS2)[C@H](CN1CC[C@H](O)C1)c1ccccc1` [Example 7, N-((S)-2-((S)-3-hydroxypyrrolidin-1-yl)-1-phenylethyl)-N-methyl-2-(3-oxo-3,4-dihydro-2H-benzo[b][1,4]thiazin-6-yl)acetamide] and `CN(C(=O)Cc1ccc2c(c1)NC(=O)CS2)[C@H](CN1CCCC1)c1ccccc1` [Example 129, (S)-N-methyl-2-(3-oxo-3,4-dihydro-2H-benzo [b][1,4]thiazin-6-yl)-N-(1-phenyl-2-(pyrrolidin-1-yl)ethyl)acetamide] cannot be ordered by EC50: no more than 50 nM for the first, no more than 50 nM for the second.

`CN(C(=O)Cc1ccc2c(c1)NC(=O)C2)[C@H](CN1CC[C@H](F)C1)c1cccc(OCC(=O)O)c1` [Example 29, 2-(3-((S)-2-((S)-3-fluoropyrrolidin-1-yl)-1-(N-methyl-2-(2-oxoindolin-6-yl)acetamido)ethyl)phenoxy)acetic acid] and `O=C(O)COc1cccc(C(CN2CC[C@H](O)C2)NC(=O)Cc2ccc3c(c2)NC(=O)C3)c1` (mixture of isomers) [Example 100, (S)-2-(3-(2-(3-hydroxypyrrolidin-1-yl)-1-(2-(2-oxoindolin-6-yl)acetamido)ethyl)phenoxy)acetic acid hydrochloride] cannot be ordered by EC50: no more than 50 nM for the first, no more than 50 nM for the second.

`CCc1nc(-c2cccc([C@@H](CN3CC[C@H](O)C3)N(C)C(=O)Cc3ccc4c(c3)NC(=O)C4)c2)no1` [Example 214, N-((S)-1-(3-(5-ethyl-1,2,4-oxadiazol-3-yl)phenyl)-2-((S)-3-hydroxypyrrolidin-1-yl)ethyl)-N-methyl-2-(2-oxoindolin-6-yl)acetamide] and `CN(C(=O)Cc1ccc2sc(=O)[nH]c2c1)[C@H](CN1CC[C@H](O)C1)c1cccc(-c2noc(C(F)(F)F)n2)c1` [Example 184, N-((S)-2-((S)-3-hydroxypyrrolidin-1-yl)-1-(3-(5-(trifluoromethyl)-1,2,4-oxadiazol-3-yl)phenyl)ethyl)-N-methyl-2-(2-oxo-2,3-dihydrobenzo[d]thiazol-5-yl)acetamide] cannot be ordered by EC50: no more than 50 nM for the first, no more than 50 nM for the second.

Compared with `CN(C(=O)Cc1ccc2c(c1)N(C)S(=O)(=O)C2)[C@H](CN1CC[C@H](O)C1)c1cccc(-c2nn[nH]n2)c1` [Example 21, N-((S)-1-(3-(1H-tetrazol-5-yl)phenyl)-2-((S)-3-hydroxypyrrolidin-1-yl)ethyl)-N-methyl-2-(1-methyl-2,2-dioxido-1,3-dihydrobenzo[c]isothiazol-6-yl)acetamide], `CN(C(=O)Cc1ccc2c(c1)NC(=O)C(C)(C)S2)[C@H](CN1CC[C@H](O)C1)c1cccc(OC(F)(F)F)c1` [Example 143, 2-(2,2-dimethyl-3-oxo-3,4-dihydro-2H-benzo[b][1,4]thiazin-6-yl)-N-((S)-2-((S)-3-hydroxypyrrolidin-1-yl)-1-(3-(trifluoromethoxy)phenyl)ethyl)-N-methylacetamide] is lower in EC50: 51 to 100 nM for the first, no more than 50 nM for the second.

`CC(C)(C(=O)N[C@H](CN1CC[C@H](O)C1)c1ccccc1)c1ccc2oc(=O)[nH]c2c1` [Example 55, N-((S)-2-((S)-3-hydroxypyrrolidin-1-yl)-1-phenylethyl)-2-methyl-2-(2-oxo-2,3-dihydrobenzo[d]oxazol-5-yl)propanamide] and `O=C1COc2ccc(CC(=O)N[C@H](CN3CCCC3)c3ccccc3)cc2N1` [Example 114, (S)-2-(3-oxo-3,4-dihydro-2H-benzo[b][1,4]oxazin-6-yl)-N-(1-phenyl-2-(pyrrolidin-1-yl)ethyl)acetamide] cannot be ordered by EC50: no more than 50 nM for the first, no more than 50 nM for the second.

Work on `CN(C(=O)Cc1ccc2c(c1)NC(=O)C2)[C@H](CN1CC[C@H](O)C1)c1cc(F)cc(-c2nccs2)c1` [Example 43, N-((S)-1-(3-fluoro-5-(thiazol-2-yl)phenyl)-2-((S)-3-hydroxypyrrolidin-1-yl)ethyl)-N-methyl-2-(2-oxoindolin-6-yl)acetamide] yielded an EC50 of no more than 50 nM.
